We go through 1 compound from EP1914309A1 (priority 2006, dated 2008).

The subject of one experiment is HIV-1. As to conditions: concentration at which cell infection by a virus having tropism for said cell is 100% blocked. From the text: A "saturating dose of an inhibitor" denotes a concentration of inhibitor at which cell infection by a virus having tropism for said cell is 100% blocked by the inhibitor, which is function of the inhibitor.
Another experiment has as its system X4 tropic virus. As to conditions: mixture of viral envelopes from reference viruses NL4-3 and JR-CSF; infection via CXCR4; inhibitor at saturating dose; Figure 5.

Protocol for X4 tropic virus: Viral supernatants are used to infect U373MG-CD4 indicator cells expressing either the CCR5 or CXCR4 co-receptor (U373-CCR5 or U373-CXCR4), in presence or absence of co-receptor inhibitors at a saturating dose. The indicator cells contain the lacZ gene under control of the HIV-1 LTR which allows the determination of viral infection and thus of viral tropism using a colorimetric assay based on the expression of the β-galactosidase by Tat (see Figure 4).
In the RVA tropism, viral infection is detected independently for both co-receptors. A sample is considered positive when the ratio [OD sample/ OD control] reaches or exceeds 1.5 (the control being an R5-tropic virus on CXCR4+ cells or a X4-tropic virus on CCR5+ cells).
On the day of infection, the condition of the indicator U373-CCR5 and U373-CXCR4 cells is verified. CXCR4- and CCR5-inhibitors are prepared at 4x their final concentrations used in the test (e.g. 4x AMD-3100 at 8 µg/ml). […]
The β-galactosidase produced by the infected U373-CCR5 or U373-CXCR4 cells is quantified: the level of marker expressed is quantified by measuring the β-galactosidase activity by using a CPRG (chlorophenolred-β-D-galactopyranoside) substrate. […]

Take `c1cc(CN2CCCNCCNCCCNCC2)ccc1CN1CCCNCCNCCCNCC1` [AMD3100]: the “saturating dose of an inhibitor” value in the experiment with HIV-1 is reported as “up to 2 µg/ml”. The inhibition of infection with X4 tropic virus is reported as 100%.
